Laboratory results published in PubChem BioAssay (NCI).
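Assay format: 96-well plates, 48-hour exposure. The concentration for full growth arrest is given as TGI.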

Columns and labels:
Experiment in all cases: growth of human tumour cells (NCI), 48 h
UACC-257 melanoma = tested on: UACC-257 melanoma
SR leukemia = tested on: SR leukemia
EKVX NSCLC = tested on: EKVX NSCLC
SK-OV-3 ovarian = tested on: SK-OV-3 ovarian
RPMI-8226 leukemia = tested on: RPMI-8226 leukemia
T-47D breast = tested on: T-47D breast
OVCAR-4 ovarian = tested on: OVCAR-4 ovarian
LOX IMVI melanoma = tested on: LOX IMVI melanoma
OVCAR-8 ovarian = tested on: OVCAR-8 ovarian
HT29 colon = tested on: HT29 colon
SF-295 CNS = tested on: SF-295 CNS
SNB-75 CNS = tested on: SNB-75 CNS
SN12C renal = tested on: SN12C renal
MCF7 breast = tested on: MCF7 breast
OVCAR-3 ovarian = tested on: OVCAR-3 ovarian
BT-549 breast = tested on: BT-549 breast
MALME-3M melanoma = tested on: MALME-3M melanoma
SK-MEL-2 melanoma = tested on: SK-MEL-2 melanoma

Q: How did the TGI (UACC-257 melanoma) turn out when C1CSCCSCCCSC2CCCCC2SC1 (configuration not stated) was run?
A: > 100 µM

Q: What about the TGI (SR leukemia) of the same molecule?
A: > 100 µM

Q: And the TGI (EKVX NSCLC)?
A: > 100 µM

Q: And the TGI (SK-OV-3 ovarian)?
A: > 100 µM

Q: What about the TGI (RPMI-8226 leukemia) of the same molecule?
A: > 100 µM

Q: What about the TGI (T-47D breast) of the same molecule?
A: > 100 µM

Q: What about the TGI (OVCAR-4 ovarian) of the same molecule?
A: > 100 µM

Q: What about the TGI (LOX IMVI melanoma) of the same molecule?
A: > 100 µM

Q: What about the TGI (OVCAR-8 ovarian) of the same molecule?
A: > 100 µM

Q: And the TGI (HT29 colon)?
A: 60.9 µM

Q: What about the TGI (SF-295 CNS) of the same molecule?
A: > 100 µM

Q: What about the TGI (SNB-75 CNS) of the same molecule?
A: > 100 µM

Q: What about the TGI (SN12C renal) of the same molecule?
A: > 100 µM

Q: And the TGI (MCF7 breast)?
A: > 100 µM

Q: What about the TGI (OVCAR-3 ovarian) of the same molecule?
A: > 100 µM

Q: And the TGI (BT-549 breast)?
A: > 100 µM

Q: For Clc1cccc(-c2sc(-c3ccsc3)cc2Cc2ccsc2)c1, which TGI (UACC-257 melanoma) is on record?
A: > 10 µM

Q: And the TGI (SR leukemia)?
A: > 10 µM

Q: What about the TGI (EKVX NSCLC) of the same molecule?
A: > 10 µM

Q: And the TGI (MALME-3M melanoma)?
A: > 10 µM

Q: What about the TGI (SK-OV-3 ovarian) of the same molecule?
A: > 10 µM

Q: And the TGI (RPMI-8226 leukemia)?
A: > 10 µM

Q: What about the TGI (T-47D breast) of the same molecule?
A: > 10 µM

Q: And the TGI (OVCAR-4 ovarian)?
A: > 10 µM

Q: What about the TGI (LOX IMVI melanoma) of the same molecule?
A: > 10 µM

Q: And the TGI (OVCAR-8 ovarian)?
A: > 10 µM

Q: What about the TGI (HT29 colon) of the same molecule?
A: > 10 µM

Q: And the TGI (SF-295 CNS)?
A: > 10 µM

Q: What about the TGI (SNB-75 CNS) of the same molecule?
A: > 10 µM

Q: And the TGI (SN12C renal)?
A: > 10 µM

Q: What about the TGI (MCF7 breast) of the same molecule?
A: > 10 µM

Q: How did the TGI (UACC-257 melanoma) turn out when CCCCCCCCCCCCOP(=O)(O)OP(=O)(O)OCC1OC(n2ccc(N)nc2=O)CC1O (configuration not stated) was run?
A: > 100 µM

Q: And the TGI (EKVX NSCLC)?
A: > 100 µM

Q: What about the TGI (MALME-3M melanoma) of the same molecule?
A: > 100 µM

Q: What about the TGI (SK-OV-3 ovarian) of the same molecule?
A: > 100 µM

Q: And the TGI (RPMI-8226 leukemia)?
A: > 100 µM

Q: And the TGI (T-47D breast)?
A: > 100 µM

Q: And the TGI (OVCAR-4 ovarian)?
A: > 100 µM

Q: And the TGI (LOX IMVI melanoma)?
A: > 100 µM

Q: What about the TGI (OVCAR-8 ovarian) of the same molecule?
A: > 100 µM

Q: And the TGI (HT29 colon)?
A: > 100 µM

Q: What about the TGI (SF-295 CNS) of the same molecule?
A: > 100 µM

Q: What about the TGI (SNB-75 CNS) of the same molecule?
A: > 100 µM

Q: And the TGI (SK-MEL-2 melanoma)?
A: > 100 µM

Q: And the TGI (SN12C renal)?
A: > 100 µM

Q: What about the TGI (MCF7 breast) of the same molecule?
A: > 100 µM

Q: What about the TGI (OVCAR-3 ovarian) of the same molecule?
A: > 100 µM

Q: What about the TGI (BT-549 breast) of the same molecule?
A: > 100 µM

Q: With COc1cc(C2C3=C(COC3=O)Oc3cc4c(cc32)OCO4)ccc1O (configuration not stated) as the molecule, how does the TGI (UACC-257 melanoma) read?
A: > 100 µM

Q: What about the TGI (EKVX NSCLC) of the same molecule?
A: > 100 µM

Q: What about the TGI (SK-OV-3 ovarian) of the same molecule?
A: 0.932 µM

Q: What about the TGI (RPMI-8226 leukemia) of the same molecule?
A: > 63.2 µM

Q: And the TGI (T-47D breast)?
A: > 100 µM

Q: And the TGI (OVCAR-4 ovarian)?
A: > 75.3 µM

Q: And the TGI (LOX IMVI melanoma)?
A: > 100 µM

Q: What about the TGI (OVCAR-8 ovarian) of the same molecule?
A: 29.5 µM

Q: What about the TGI (HT29 colon) of the same molecule?
A: 37.9 µM

Q: What about the TGI (SNB-75 CNS) of the same molecule?
A: 0.652 µM

Q: What about the TGI (SK-MEL-2 melanoma) of the same molecule?
A: > 100 µM

Q: What about the TGI (SN12C renal) of the same molecule?
A: > 100 µM

Q: And the TGI (MCF7 breast)?
A: > 100 µM

Q: What about the TGI (OVCAR-3 ovarian) of the same molecule?
A: 0.471 µM

Q: What about the TGI (BT-549 breast) of the same molecule?
A: > 100 µM

Q: COCCN(CCNC(=O)c1cccc2c(N)c3cccc(C)c3nc12)CCOC was tested. Which TGI (UACC-257 melanoma) did it give?
A: 19.9 µM

Q: And the TGI (EKVX NSCLC)?
A: 7.7 µM

Q: And the TGI (MALME-3M melanoma)?
A: 1.96 µM

Q: And the TGI (SK-OV-3 ovarian)?
A: 42.1 µM

Q: And the TGI (RPMI-8226 leukemia)?
A: 5.91 µM

Q: And the TGI (T-47D breast)?
A: 27.5 µM

Q: And the TGI (OVCAR-4 ovarian)?
A: 6.38 µM

Q: What about the TGI (LOX IMVI melanoma) of the same molecule?
A: 3.27 µM

Q: What about the TGI (OVCAR-8 ovarian) of the same molecule?
A: 19 µM

Q: What about the TGI (HT29 colon) of the same molecule?
A: 10.2 µM

Q: What about the TGI (SF-295 CNS) of the same molecule?
A: > 22.9 µM

Q: And the TGI (SNB-75 CNS)?
A: 4.75 µM

Q: And the TGI (SK-MEL-2 melanoma)?
A: 18.7 µM

Q: And the TGI (SN12C renal)?
A: 6.54 µM

Q: And the TGI (MCF7 breast)?
A: 23.3 µM

Q: And the TGI (OVCAR-3 ovarian)?
A: 15.2 µM

Q: What about the TGI (BT-549 breast) of the same molecule?
A: 20.3 µM

Q: What does the source list for Cc1c(C)c(C)c(Cn2[nH]c(=O)n(C)c2=O)c(C)c1C?
A: TGI (UACC-257 melanoma): > 100 µM; TGI (EKVX NSCLC): > 100 µM; TGI (MALME-3M melanoma): > 100 µM; TGI (SK-OV-3 ovarian): > 100 µM; TGI (RPMI-8226 leukemia): > 100 µM; TGI (T-47D breast): > 100 µM; TGI (LOX IMVI melanoma): > 100 µM; TGI (OVCAR-8 ovarian): > 100 µM; TGI (HT29 colon): > 100 µM; TGI (SF-295 CNS): > 100 µM; TGI (SNB-75 CNS): > 100 µM; TGI (SK-MEL-2 melanoma): > 100 µM; TGI (SN12C renal): > 100 µM; TGI (MCF7 breast): > 100 µM; TGI (BT-549 breast): > 100 µM

Q: What does the source list for C=CC(O)(CBr)CCC(Br)C(=C)C (configuration not stated)?
A: TGI (UACC-257 melanoma): > 10 µM; TGI (EKVX NSCLC): > 10 µM; TGI (MALME-3M melanoma): > 10 µM; TGI (SK-OV-3 ovarian): > 10 µM; TGI (RPMI-8226 leukemia): > 10 µM; TGI (T-47D breast): > 10 µM; TGI (OVCAR-4 ovarian): > 10 µM; TGI (LOX IMVI melanoma): > 10 µM; TGI (OVCAR-8 ovarian): > 10 µM; TGI (HT29 colon): > 10 µM; TGI (SF-295 CNS): > 10 µM; TGI (SNB-75 CNS): > 10 µM; TGI (SK-MEL-2 melanoma): > 10 µM; TGI (SN12C renal): > 10 µM; TGI (MCF7 breast): > 10 µM; TGI (OVCAR-3 ovarian): > 10 µM; TGI (BT-549 breast): > 10 µM
